Measured values from patent US8030443B2, “Squamous cell carcinoma antigen-derived peptide binding to HLA-A24 molecule” (Kurume University, priority 2005, dated 2011).

Tested on: peptide-specific IgG in sera of cancer patients and healthy donors
Assay: Measurement of anti-peptide IgG in plasma by LUMINEX multiplexed flow cytometric assay
Format: binding, human
Procedure: The levels of anti-peptide immunoglobulin G (IgG) were measured by the LUMINEX™ system (multiplexed flow cytometric assay) as previously reported (Komatsu N, Shichijo S, Nakagawa M, Itoh K. New multiplexed flow cytometric assay to measure anti-peptide antibody: a novel tool for monitoring immune responses to peptides used for immunization. Scand J Clin Lab Invest 2004; 64:1-11). In brief, plasma was incubated with 25 μl of peptide-coupled color-coded beads for 2 hr at room temperature on a plate shaker. After incubation, the mixture was washed with a vacuum manifold apparatus and incubated with 100 μl of biotinylated goat anti-human IgG (γ chain-specific)(BA-3080, Vector Laboratories, Burlingame, Calif., USA) for 1 h at room temperature. The plate was then washed, followed by the addition of 100 μl of streptavidin-PE (S-866, Molecular Probes, Eugene, Oreg., USA) into wells, and was incubated for 30 min at room temperature on a plate shaker. The bound beads were washed three times followed by the addition of 100 μl of Tween-PBS into each well. Fifty μl of sample was detected using the LUMINEX™ system (multiplexed flow cytometric assay). To confirm the specificity of IgG to a SCCA peptide, sample plasma was cultured in plates coated with a corresponding SCCA peptide, or with an irrelevant SCCA peptide. After the operation was repeated three times, the levels of the corresponding SCCA peptide-specific IgG in the resulting supernatant were determined by the LUMINEX™ system (multiplexed flow cytometric assay).
These 9 SCCA-derived peptides were screened based on their ability to be recognized by IgG in cancer patients. Peptide-specific IgG was measured by a multiplexed flow cytometric assay (LUMINEX™ (multiplexed flow cytometric assay)). The plasma samples were derived from 35 uterine cervical SCC patients, 10 breast adenocarcinoma patients, 10 pancreatic adenocarcinoma patients, 10 gastric adenocarcinoma, and 6 colon adenocarcinoma patients. The level of fluorescence intensity was judged to be significant when exceeded 100 at an 1/100 dilution.

With “RFKVEESYDL (SCCA 286-295 peptide) [SCCA-derived peptide, position 286-295]” the “Total: healthy donors with significant peptide-reactive IgG / donors tested” value (10 healthy donors, significant when fluorescence intensity exceeded 100 at 1/100 dilution) was 4/10, the “Total: cancer patients with significant peptide-reactive IgG / patients tested” value (71 cancer patients, significant when fluorescence intensity exceeded 100 at 1/100 dilution) was 19/71 and the “Specificity of IgG reactive to the peptide” value (absorption assay: corresponding vs irrelevant SCCA peptide-coated wells (FIG. 3)) was “confirmed by absorption assay”. The Fluorescence intesity (serum of Breast Ca. patient #36, 1:100 dilution) was 292, the Fluorescence intesity (serum of Breast Ca. patient #37, 1:100 dilution) was 54 and the Fluorescence intesity (serum of Breast Ca. patient #38, 1:100 dilution) was 95. It also gave a Fluorescence intesity (serum of Breast Ca. patient #39, 1:100 dilution) of 117, a Fluorescence intesity (serum of Breast Ca. patient #40, 1:100 dilution) of 32 and a Fluorescence intesity (serum of Breast Ca. patient #41, 1:100 dilution) of 321. The Fluorescence intesity (serum of Breast Ca. patient #42, 1:100 dilution) was 47, the Fluorescence intesity (serum of Breast Ca. patient #43, 1:100 dilution) was 58 and the Fluorescence intesity (serum of Breast Ca. patient #44, 1:100 dilution) was 155. The Fluorescence intesity (serum of Breast Ca. patient #45, 1:100 dilution) was 80, the Fluorescence intesity (serum of Colon Ca. patient #66, 1:100 dilution) was 4 and the Fluorescence intesity (serum of Colon Ca. patient #67, 1:100 dilution) was 35. For the same sequence, the Fluorescence intesity (serum of Colon Ca. patient #68, 1:100 dilution) was 0, the Fluorescence intesity (serum of Colon Ca. patient #69, 1:100 dilution) was 8 and the Fluorescence intesity (serum of Colon Ca. patient #70, 1:100 dilution) was 16. The Fluorescence intesity (serum of Colon Ca. patient #71, 1:100 dilution) was 45, the Fluorescence intesity (serum of Gastric Ca. patient #56, 1:100 dilution) was 243 and the Fluorescence intesity (serum of Gastric Ca. patient #57, 1:100 dilution) was 9. It also gave a Fluorescence intesity (serum of Gastric Ca. patient #58, 1:100 dilution) of 27, a Fluorescence intesity (serum of Gastric Ca. patient #59, 1:100 dilution) of 258 and a Fluorescence intesity (serum of Gastric Ca. patient #60, 1:100 dilution) of 79. For the same sequence, the Fluorescence intesity (serum of Gastric Ca. patient #61, 1:100 dilution) was 286, the Fluorescence intesity (serum of Gastric Ca. patient #62, 1:100 dilution) was 0 and the Fluorescence intesity (serum of Gastric Ca. patient #63, 1:100 dilution) was 7. The Fluorescence intesity (serum of Gastric Ca. patient #64, 1:100 dilution) was 40, the Fluorescence intesity (serum of Gastric Ca. patient #65, 1:100 dilution) was 37 and the Fluorescence intesity (serum of Healthy Donor #1, 1:100 dilution) was 21. It also gave a Fluorescence intesity (serum of Healthy Donor #2, 1:100 dilution) of 219, a Fluorescence intesity (serum of Healthy Donor #3, 1:100 dilution) of 9 and a Fluorescence intesity (serum of Healthy Donor #4, 1:100 dilution) of 0. The Fluorescence intesity (serum of Healthy Donor #5, 1:100 dilution) was 239, the Fluorescence intesity (serum of Healthy Donor #6, 1:100 dilution) was 2 and the Fluorescence intesity (serum of Healthy Donor #7, 1:100 dilution) was 0. It also gave a Fluorescence intesity (serum of Healthy Donor #8, 1:100 dilution) of 516, a Fluorescence intesity (serum of Healthy Donor #9, 1:100 dilution) of 100 and a Fluorescence intesity (serum of Healthy Donor #10, 1:100 dilution) of 138. It also gave a Fluorescence intesity (serum of Pancreas Ca. patient #46, 1:100 dilution) of 0, a Fluorescence intesity (serum of Pancreas Ca. patient #47, 1:100 dilution) of 37 and a Fluorescence intesity (serum of Pancreas Ca. patient #48, 1:100 dilution) of 946. It also gave a Fluorescence intesity (serum of Pancreas Ca. patient #49, 1:100 dilution) of 97, a Fluorescence intesity (serum of Pancreas Ca. patient #50, 1:100 dilution) of 0 and a Fluorescence intesity (serum of Pancreas Ca. patient #51, 1:100 dilution) of 0. It also gave a Fluorescence intesity (serum of Pancreas Ca. patient #52, 1:100 dilution) of 275, a Fluorescence intesity (serum of Pancreas Ca. patient #53, 1:100 dilution) of 41 and a Fluorescence intesity (serum of Pancreas Ca. patient #54, 1:100 dilution) of 48. It also gave a Fluorescence intesity (serum of Pancreas Ca. patient #55, 1:100 dilution) of 24, a Fluorescence intesity (serum of Uterine cervical Ca. patient #1, 1:100 dilution) of 75 and a Fluorescence intesity (serum of Uterine cervical Ca. patient #2, 1:100 dilution) of 0. The Fluorescence intesity (serum of Uterine cervical Ca. patient #3, 1:100 dilution) was 21, the Fluorescence intesity (serum of Uterine cervical Ca. patient #4, 1:100 dilution) was 229 and the Fluorescence intesity (serum of Uterine cervical Ca. patient #5, 1:100 dilution) was 58. For the same sequence, the Fluorescence intesity (serum of Uterine cervical Ca. patient #6, 1:100 dilution) was 869, the Fluorescence intesity (serum of Uterine cervical Ca. patient #7, 1:100 dilution) was 15 and the Fluorescence intesity (serum of Uterine cervical Ca. patient #8, 1:100 dilution) was 30. It also gave a Fluorescence intesity (serum of Uterine cervical Ca. patient #9, 1:100 dilution) of 93, a Fluorescence intesity (serum of Uterine cervical Ca. patient #10, 1:100 dilution) of 14 and a Fluorescence intesity (serum of Uterine cervical Ca. patient #11, 1:100 dilution) of 23. It also gave a Fluorescence intesity (serum of Uterine cervical Ca. patient #12, 1:100 dilution) of 44, a Fluorescence intesity (serum of Uterine cervical Ca. patient #13, 1:100 dilution) of 29 and a Fluorescence intesity (serum of Uterine cervical Ca. patient #14, 1:100 dilution) of 19. It also gave a Fluorescence intesity (serum of Uterine cervical Ca. patient #15, 1:100 dilution) of 129, a Fluorescence intesity (serum of Uterine cervical Ca. patient #16, 1:100 dilution) of 147 and a Fluorescence intesity (serum of Uterine cervical Ca. patient #17, 1:100 dilution) of 63. For the same sequence, the Fluorescence intesity (serum of Uterine cervical Ca. patient #18, 1:100 dilution) was 48, the Fluorescence intesity (serum of Uterine cervical Ca. patient #19, 1:100 dilution) was 62 and the Fluorescence intesity (serum of Uterine cervical Ca. patient #20, 1:100 dilution) was 102. It also gave a Fluorescence intesity (serum of Uterine cervical Ca. patient #21, 1:100 dilution) of 21, a Fluorescence intesity (serum of Uterine cervical Ca. patient #22, 1:100 dilution) of 25 and a Fluorescence intesity (serum of Uterine cervical Ca. patient #23, 1:100 dilution) of 60. It also gave a Fluorescence intesity (serum of Uterine cervical Ca. patient #24, 1:100 dilution) of 1779, a Fluorescence intesity (serum of Uterine cervical Ca. patient #25, 1:100 dilution) of 18 and a Fluorescence intesity (serum of Uterine cervical Ca. patient #26, 1:100 dilution) of 97. The Fluorescence intesity (serum of Uterine cervical Ca. patient #27, 1:100 dilution) was 29, the Fluorescence intesity (serum of Uterine cervical Ca. patient #28, 1:100 dilution) was 139 and the Fluorescence intesity (serum of Uterine cervical Ca. patient #29, 1:100 dilution) was 16. It also gave a Fluorescence intesity (serum of Uterine cervical Ca. patient #30, 1:100 dilution) of 34, a Fluorescence intesity (serum of Uterine cervical Ca. patient #31, 1:100 dilution) of 104 and a Fluorescence intesity (serum of Uterine cervical Ca. patient #32, 1:100 dilution) of 19. For the same sequence, the Fluorescence intesity (serum of Uterine cervical Ca. patient #33, 1:100 dilution) was 118, the Fluorescence intesity (serum of Uterine cervical Ca. patient #34, 1:100 dilution) was 16 and the Fluorescence intesity (serum of Uterine cervical Ca. patient #35, 1:100 dilution) was 21.
